From US20240139167A1, “LYSOSOME-ASSOCIATED MEMBRANE PROTEIN TARGETING COMPOUNDS AND USES THEREOF” (HADASIT MEDICAL RESEARCH SERVICES AND DEVELOPMENT LTD., priority 2021, published 2024)

Legend:
[1] = test system: microglia cells from brains of 5XFAD mice; experiment: LC3, p62 and PAS staining of microglia from AD model; format: cell-based; conditions: 50 μM, 24 h
Method: FIGS. 19A-19B include fluorescent micrographs showing microglia cells which were isolated from the brains of AD modeling 5XFAD mice by CD11b magnetic beads. Microglia were then incubated for 24 h with (treated), or without (untreated) 50 μM 144DG11, fixed and stained for the autophagic substrates LC3 (19A) and p62 (19B) and for glycogen by PAS, all as indicated. Reduction in the levels of both LC3 and p62 indicate induction of autophagy which degrades these substrates.
Being the most pro-inflammatory tissue in the brain, microglia are currently at the epicenter of innovative therapeutic research for AD. Moreover, as neuroinflammation is now accepted as the main pathogenic factor in AD and as activation of microglia autophagy and mitophagy is a leading therapeutic strategy (see, for instance, Eshraghi et al., (2021)), 144DG11 holds promise as a potential AD therapeutic.

LAMP1 = target: T1, LAMP1 (Homo sapiens, UniProt P11279); experiment: Cellular thermal shift assay (CETSA); format: binding
T1 construct: endogenous in cells
T1 sequence (P11279 29-417): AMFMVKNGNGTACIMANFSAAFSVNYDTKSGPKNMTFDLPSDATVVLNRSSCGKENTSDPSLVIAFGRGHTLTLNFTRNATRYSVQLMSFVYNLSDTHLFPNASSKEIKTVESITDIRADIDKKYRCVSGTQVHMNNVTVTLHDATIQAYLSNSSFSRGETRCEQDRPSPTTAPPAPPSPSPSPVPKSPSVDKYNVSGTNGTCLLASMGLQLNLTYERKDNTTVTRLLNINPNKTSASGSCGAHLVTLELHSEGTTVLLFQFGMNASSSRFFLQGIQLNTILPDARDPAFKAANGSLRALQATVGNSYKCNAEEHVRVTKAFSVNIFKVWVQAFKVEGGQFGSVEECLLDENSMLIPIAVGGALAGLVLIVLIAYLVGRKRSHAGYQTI
Description: FIGS. 5A-5E include images of experiments showing hetero-assembly forms around Compound 1 and not around endogenous molecules as shown by the liquid crystals formed in experiments 1-3 (5A); image of STRING network of targets at the interactome of Compound 1 (5B); cellular thermal shift assay (CETSA) of different targets of the Compound 1 hetero-assembly (5C); surface plasmon resonance sensograms of binding of Compound 1 to LAMP1 (5D); sensogram experiments consisting of association and dissociation at the indicated concentration ranges and pH values were then conducted.
The inventors have investigated the mechanism of action of 144DG11. To that end, the inventors first decided to determine its molecular target. Nematic protein organization technique (NPOT, Inoviem, Ltd.) was applied to homogenates of APBD patient fibroblasts. The NPOT analysis has discovered protein hetero assemblies uniquely generated around 144DG11 only when it was added to the cell homogenates (FIG. 5A). The next step in this analysis has identified the interactome of protein targets interacting with 144DG11 in APBD patients' fibroblasts. […] In the search for a putative binding site for Compound 1 in LAMP1, the inventors have analyzed the N- and C-terminal subdomains of its luminal domain (residues A29-R195 and S217-D378, respectively), which have a similar topology. […]

[2] = test system: primary human non-small-cell lung cancer (NSCLC) cells; experiment: LC3, p62 and PAS staining of lung cancer cells; format: cell-based
Method: FIGS. 20A-20B include fluorescent micrographs showing primary non-small cell-lung cancer. Cells were treated and stained for the autophagic substrates LC3 (20A) and p62 (20B) as in 19A-19B.
NAD+ and NADH are key precursors for the electron transfer chain, TCA cycle, glycolysis, amino acid synthesis, fatty acid synthesis, and nucleotide synthesis. The NAD+/NADH ratio reports the extent of overall catabolism and the balance between glycolysis and OxPhos. The increase in the NAD+/NADH ratio means acceleration of electron flow in the mitochondrial electron transport chain (note, not mitochondrial ATP production) and of glycolysis to better manage metabolic demands. Furthermore, Sirt1 induction, often associated with increased NAD+/NADH ratio, is a well-documented and innovative anti-aging, calorie restriction-mimic and anti-cancer therapeutic strategy (see for example Hyun et al., (2020)). Thus, the results in Gsd1a cells (FIG. 21), showing induction of the NAD+/NADH ratio, as well as Sirt1, indicate that 144DG11 is a promising therapy for a plethora of different metabolic disorders, aging-related complications, and cancer.

[3] = test system: PD patient-derived skin fibroblasts; experiment: Autophagic flux in Pompe disease fibroblasts; format: cell-based, human; conditions: serum starved, 50 μM, 24 h
Method: FIG. 15 includes a micrograph and a vertical bar graph showing autophagic flux in PD patient-derived skin fibroblasts, serum starved and treated (or not) with 50 μM 144DG11 (indicated as comp. A).
144DG11 can activate autophagy in the lysosomal storage disease (LSD) Pompe disease (PD) in which autophagy is perturbed (FIG. 15). […] This ratio serves as the most accepted marker for autophagy and autophagic flux. […] These observations indicate that, as in the GSD APBD, 144DG11 can activate autophagy also in the typical LSD PD in which autophagy is disturbed.

With `COCCN(Cc1sccc1C)C(=O)c1cc(C)nc(O)c1` [Compound 1] the glycogen levels [1] was “did not lower glycogen levels”, the “total LC3 and p62” value [1] was “decrease” and the “increase in LAMP1 levels” value (LAMP1) was 1.2 fold. For the same compound, the “interaction with LAMP1 (not other protein targets; 6 of 8 NPOT targets tested)” value (LAMP1) was “directly interacts”, the “autophagy (LC3, p62)” value [2] was “induced autophagy” and the glycogen levels [2] was “did not lower glycogen levels”. The “sensitivity to vinblastine (increase in the LC3II/LC3I ratio)” value [3] was “increased”.
